Data on 16 compounds can be found in ChEMBL document CHEMBL4196203, “BACE1 Inhibitory Meroterpenoids from Aspergillus terreus” (J Nat Prod, 2018).

This assay deals with Beta-secretase 1 (Homo sapiens, UniProt P56817). Put plainly: Inhibition of human BACE1 using MOCA-SEV-NL-DAEFR-DNP-RR as substrate measured after 2 hrs by FRET assay.

As usually defined, the IC50 is the concentration that gives 50% inhibition. A high value points to a need for much substance.

Chain of Beta-secretase 1 (P56817 whole entry): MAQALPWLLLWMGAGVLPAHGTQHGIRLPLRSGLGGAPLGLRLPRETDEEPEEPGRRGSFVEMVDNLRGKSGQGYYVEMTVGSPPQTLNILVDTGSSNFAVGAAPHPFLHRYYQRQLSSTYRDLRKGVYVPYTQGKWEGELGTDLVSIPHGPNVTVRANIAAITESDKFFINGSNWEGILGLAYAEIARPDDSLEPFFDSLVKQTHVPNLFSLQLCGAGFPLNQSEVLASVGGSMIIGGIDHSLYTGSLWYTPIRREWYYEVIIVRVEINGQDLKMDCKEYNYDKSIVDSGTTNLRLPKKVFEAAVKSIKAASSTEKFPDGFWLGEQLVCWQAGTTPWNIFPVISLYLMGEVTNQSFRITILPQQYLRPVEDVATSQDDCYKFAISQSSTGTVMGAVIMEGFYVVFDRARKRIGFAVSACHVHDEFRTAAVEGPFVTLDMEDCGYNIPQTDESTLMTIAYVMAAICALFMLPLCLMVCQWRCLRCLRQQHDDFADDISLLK

In the case of `C=C1C[C@H]2[C@]3(C)CCC(=O)C(C)(C)[C@H]3C(=O)[C@@H](O)[C@]2(C)[C@H]2C(=O)O[C@](C)(C(=O)OCC)C(=O)[C@]12C`, the half-maximal inhibitory concentration (IC50) was > 50 µM.

As to `C=C1C[C@H]2[C@]3(C)CCC(=O)C(C)(C)[C@H]3C(=O)[C@@H](O)[C@]2(C)[C@H]2C(=O)O[C@](C)(C(=O)OC)C(=O)[C@]12C`, the concentration for half-maximal inhibition (IC50) was > 50 µM.

As for `C=C1C[C@H]2[C@]3(C)CCC(=O)C(C)(C)[C@H]3C(=O)C[C@]2(C)[C@@H](C(=O)OC)[C@]1(C)C(=O)[C@](C)(O)C(=O)OC`, the concentration for half-maximal inhibition (IC50) is > 50 µM.

On to `C=C1C[C@H]2[C@]3(C)CCC(=O)C(C)(C)[C@H]3CC[C@]2(C)[C@]2(C(=O)OC)C(=O)[C@@](C)(O)C(=O)[C@]12C`, for which the half-inhibitory concentration (IC50) is > 50 µM.

As to `C=C1C[C@H]2[C@]3(C)CCC(=O)C(C)(C)[C@@H]3C(=O)[C@@H](O)[C@]2(C)[C@@H](C(=O)OC)[C@]1(C)C(=O)[C@](C)(O)C(=O)OC`, the IC50 was 31.7 µM.

Take `C=C1C[C@@]2(O)[C@]3(C)CCC(=O)C(C)(C)C3=C(O)C(=O)[C@]2(C)[C@H]2C(=O)O[C@](C)(C(=O)OC)C(=O)[C@]12C`: the IC50 was > 50 µM.

For the compound `C=C1C[C@H]2[C@]3(C)CCC(=O)C(C)(C)[C@H]3C(=O)C[C@]2(C)[C@]2(C(=O)OC)C(=O)[C@H](C)OC(=O)[C@]12C`, the IC50 is > 50 µM.

`C=C1C[C@H]2[C@]3(C)CCC(=O)C(C)(C)[C@@H]3C(=O)[C@@H](O)[C@]2(C)[C@H]2C(=O)O[C@](C)(C(=O)OC)C(=O)[C@]12C` showed a half-maximal inhibitory concentration (IC50) of 3.32 µM.

Take `C=C1[C@@H]2O[C@@]23[C@]2(C)CCC(=O)C(C)(C)C2=C(O)C(=O)[C@]3(C)[C@H]2C(=O)O[C@](C)(C(=O)OC)C(=O)[C@]12C`: the IC50 was > 50 µM.

Regarding `C=C1C[C@H]2[C@]3(C)CCC(=O)C(C)(C)[C@H]3C(=O)[C@@H](O)[C@]2(C)[C@@H](C(=O)OC)[C@]1(C)C(=O)[C@](C)(O)C(=O)OC`, the IC50 is > 50 µM.

Regarding `C=C1C[C@@H]2[C@](C)(C(=O)C(O)=C3C(C)(C)C(=O)CC[C@]32C)[C@H]2C(=O)O[C@](C)(C(=O)OC)C(=O)[C@]12C`, the 50% inhibitory concentration (IC50) is > 50 µM.

In the case of `C=C1C[C@H]2[C@]3(C)CCC(=O)C(C)(C)[C@H]3C(=O)[C@@H](O)[C@]2(C)[C@@H]2C(=O)O[C@](C)(C(=O)OC)C(=O)[C@]12C`, the IC50 was > 50 µM.

For `C=C1C[C@H]2[C@]3(C)CCC(=O)C(C)(C)[C@@H]3C(=O)[C@@H](O)[C@]2(C)[C@H]2C(=O)O[C@@H](C)C(=O)[C@]12C`, the IC50 is 5.85 µM. This counts as single-digit micromolar.

Turning to `C=C1C[C@@H]2[C@](C)(C(=O)C(O)=C3C(C)(C)C(=O)CC[C@]32C)[C@@H](C(=O)OC)[C@]1(C)C(=O)[C@](C)(O)C(=O)OC`, the IC50 was > 50 µM.

`C=C1C[C@H]2[C@]3(C)CCC(=O)C(C)(C)[C@H]3C(=O)[C@@H](O)[C@]2(C)[C@H]2C(=O)O[C@@H](C)C(=O)[C@]12C`: the half-maximal inhibitory concentration (IC50) is > 50 µM.

`C=C1C[C@H]2[C@]3(C)CC[C@@H](O)C(C)(C)[C@H]3C(=O)[C@@H](O)[C@]2(C)[C@@H](C(=O)OC)[C@]1(C)C(=O)[C@](C)(O)C(=O)OC`: the IC50 was > 50 µM.
